Results taken from patent publication US20180186796A1, “COMPOUNDS AND USES THEREOF” (LEAD DISCOVERY SIENA S.R.L., priority 2014, published 2018).
Like-named read-outs stand apart in the source and are kept apart here.

Tests used:
[1] = molecular target: T1, Recombinant human Src (Homo sapiens, UniProt P12931); assay: Enzymatic assay on isolated Src; assay type: biochemical; settings: mean of at least two experiments; read-out: Enzymatic Data (Ki, μM) c-Src
T1 construct: purchased Upstate (Lake Placid, N.Y.)
T1 sequence (P12931 whole entry): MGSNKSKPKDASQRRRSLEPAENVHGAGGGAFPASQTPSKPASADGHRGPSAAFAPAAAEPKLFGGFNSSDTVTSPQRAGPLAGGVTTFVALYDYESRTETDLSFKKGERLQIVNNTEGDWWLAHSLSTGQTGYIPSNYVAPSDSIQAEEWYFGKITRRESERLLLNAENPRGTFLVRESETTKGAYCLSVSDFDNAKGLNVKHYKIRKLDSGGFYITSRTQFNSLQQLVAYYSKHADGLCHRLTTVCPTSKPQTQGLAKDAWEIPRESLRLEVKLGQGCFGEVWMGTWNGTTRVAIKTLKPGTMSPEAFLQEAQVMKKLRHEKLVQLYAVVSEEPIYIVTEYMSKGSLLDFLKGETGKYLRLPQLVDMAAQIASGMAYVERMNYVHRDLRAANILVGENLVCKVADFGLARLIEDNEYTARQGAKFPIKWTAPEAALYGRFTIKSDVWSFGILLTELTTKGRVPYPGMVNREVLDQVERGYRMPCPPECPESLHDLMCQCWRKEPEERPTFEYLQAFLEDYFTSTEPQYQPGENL
Excerpt: Recombinant human Src was purchased from Upstate (Lake Placid, N.Y.).

[2] = test system: SH-SY5Y cells; assay: Spheroid growth assay (SH-SY5Y); assay type: cell-based; settings: Homo sapiens; SH-SY5Y Neuroblastoma cell spheroid; read-out: Cellular Data (IC50, μM) SH-SY5Y
Experimental: The in vitro antitumoral action of inhibitors was evaluated by neuroblastoma spheroid assay. The SH-SY5Y cell line was utilized as cell model of human neuroblastoma. Cells were purchased from American Type Culture Collection (ATCC, Manassas, Va., USA) and were cultured in DMEM medium supplemented with 10% Fetal Bovine Serum. IBIDI angiogenesis micro-slides (IBIDI GmbH) coated with growth factor reduced Matrigel (BD, Bioscience) and allowed to polymerize for 30 minutes. SH-SY5Y cells were seeded in a 96-multiwell plate in the presence or not (CTR) of inhibitors. […] The size of cellular spheres, in terms of area and diameter, was determined using an Image Pro-plus v 4.5 analysis system considering 5 random fields/treatment (400× magnification).
Antitumoral effect was also tested by spheroid formation assay.

[3] = test system: SH-SY5Y cells; settings: previously reported (ref 20); read-out: antiproliferative effect on SH-SY5Y NB cells (IC50); cited from earlier work
[4] = PAMPA, BBB permeability
[5] = Microsomal stability assay; settings: percentage of unmodified drug, Table 8
[6] = PAMPA, intestinal (GI) permeability
Experimental: Donor solution (0.5 mM) was prepared by diluting 1 mM dimethylsulfoxide (DMSO) compound stock solution using phosphate buffer (pH 7.4, 0.025 M). […] Donor solution (150 μL) was added to each well of the filter plate. To each well of the acceptor plate were added 300 μL of solution (50% DMSO in phosphate buffer). All compounds were tested in three different plates on different days. The sandwich was incubated for 5 h at room temperature under gentle shaking. After the incubation time, the plates were separated, and samples were taken from both receiver and donor sides and analyzed using LC with UV detection at 280 nm.
Permeability (Papp) for PAMPA was calculated according to the following equation, obtained from Wohnsland and Faller^27 and Sugano et al.^28 equation with some modification in order to obtain permeability values in cm s^−1,
Drug concentration is estimated by using the peak area integration. Membrane retentions (%) were calculated according to the following equation:
where r is the ratio between drug concentration in the acceptor and equilibrium concentration, D, A, and Eq represented drug concentration in the donor, acceptor and equilibrium solution, respectively.
Donor solution of tested compounds (0.5 mM) was prepared by diluting 1 mM dimethylsulfoxide (DMSO) compound stock solution using phosphate buffer (pH 7.4, 25 mM). […] Donor solution (150 μL) was added to each well of the filter plate. To each well of the acceptor plate were added 300 μL of solution (50% DMSO in phosphate buffer). Compounds was tested in three different plates on different days. The sandwich was incubated for 5 h at room temperature under gentle shaking.
Permeability (Papp) for PAMPA was calculated according to the following equation, obtained from Wohnsland and Faller and Sugano et al.^27, 28.
Drug concentration is estimated by using the peak area integration. Membrane retention (%) was calculated according to the following equation:

[7] = test system: K562 cells; assay: Antiproliferative activity on human cell line K562; assay type: cell-based
Experimental: In vitro experiments were carried out using the human Chronic Myelogeneous Leukemia cell line K562. Cells were purchased from American Type Culture Collection (ATCC, Manassas, Va., USA) and were cultured in RPMI medium supplemented with 10% Foetal Bovine Serum. […] Cell number and vitality were evaluated using the automatic cell counter NucleoCounteri (Chemometec, Denmark). Results from the NucleoCounter represented either total or non-viable cell concentration, depending on the sample preparation indicated by manufacturer.
In vitro experiments were carried out using the human Chronic Myelogeneous Leukemia cell line K562. Cells were purchased from American Type Culture Collection (ATCC, Manassas, Va., USA) and were cultured in RPMI medium supplemented with 10% Foetal Bovine Serum. […] Cell number and vitality were evaluated using the automatic cell counter NucleoCounter® (Chemometec, Denmark). Results from the NucleoCounter represented either total or non-viable cell concentration, depending on the sample preparation indicated by manufacturer.

[8] = test system: Fyn mediated phosphorylation of residue Tyr18 in Tau protein; assay: Aβ42 induced Tyr18-Tau phosphorylation in differentiated SH-SY5Y cells; assay type: cell-based, human
Experimental: The neuroblastoma cell line SH-SY5Y was cultured in media obtained by mixing equal volume of MEM and HAM F12 supplemented with 15% fetal calf serum (FCS, Australian origin, Lonza), 100 U/ml penicillin, 100 μg/ml streptomycin and 2 mM L-glutamine (all from Euroclone) at 37° C. in humidified air with 5% CO2. The medium was changed every 48 hours. Cells were split at about 80% confluence and never cultured beyond passage 20. Cell differentiation was achieved by pre-treating for 5 days the SH-SY5Y cells with media containing 1% FCS and 10 μM retinoic acid (RA, Sigma Aldrich). Subsequently cells were treated for other 7 days in media with no serum and supplemented with 50 ng/ml of human recombinant brain derived neurotrophic factor (BDNF, Peprotech), 10 ng/ml human recombinant beta nerve growth factor (NGF, Peprotech), 10 ng/ml neuregulin 1 beta 2 protein (NRG, Abcam) and 9.35 μg/ml vitamin D3 (Sigma Aldrich). To confirm full neuronal differentiation, the expression of mature isoforms of Tau were checked. Differentiated cells were treated for 1.5, 3 and 6 hours with media containing 10 μM Aβ42 oligomer/protofibrils and N2 supplement (Life Technologies), in the presence or in the absence of Fyn inhibitors dissolved in DMSO. As control, cells were treated with media containing equivalent amounts of DMSO.
Briefly, Aβ42 peptides (Sigma) were dissolved in 1,1,1,3,3,3-hexafluoro-2-propanol and lyophilized to completely remove the solvent. Lyophilized Aβ42 peptides were reconstituted in DMSO to a working concentration of 10 mM, diluted 1:100 using HAM F12 (without phenol red and glutammine), vortexed for 15 sec and incubated 24 hours at 4° C. A042 oligomer/protofibrils were visualized by SDS-PAGE and silver staining.

[9] = test system: human normal fibroblasts; assay: Toxicity in human normal fibroblasts; assay type: cell-based
[10] = molecular target: recombinant Fyn (Homo sapiens, UniProt P06241); assay: Enzymatic assay on isolated Fyn kinase
recombinant Fyn, sequence (P06241 whole entry, looked up): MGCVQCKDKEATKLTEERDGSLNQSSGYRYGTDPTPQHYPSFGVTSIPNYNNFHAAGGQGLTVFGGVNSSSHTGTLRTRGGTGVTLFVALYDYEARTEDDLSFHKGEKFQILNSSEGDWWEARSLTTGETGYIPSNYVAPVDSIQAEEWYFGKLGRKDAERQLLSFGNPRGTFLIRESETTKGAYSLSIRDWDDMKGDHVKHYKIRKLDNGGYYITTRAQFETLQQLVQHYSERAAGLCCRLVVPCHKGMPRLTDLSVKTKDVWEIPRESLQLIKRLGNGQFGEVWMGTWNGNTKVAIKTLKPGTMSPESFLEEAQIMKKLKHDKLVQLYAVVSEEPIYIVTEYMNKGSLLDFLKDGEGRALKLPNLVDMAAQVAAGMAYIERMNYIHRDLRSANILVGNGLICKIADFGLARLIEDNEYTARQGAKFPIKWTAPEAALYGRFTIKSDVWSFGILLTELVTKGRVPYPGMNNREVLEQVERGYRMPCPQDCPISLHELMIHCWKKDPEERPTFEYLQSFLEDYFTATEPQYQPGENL
Experimental: Kinase assays were performed in presence of 200 μM ATP and 100 μM peptide substrate. All inhibition assays were conducted with 0.01 μg active kinase, 0.33 μmol [^γ32P]ATP, 60 mM HEPES-NaOH pH 7.5, 3 μM Na-orthovanadate, 1.2 mM DTT, 50 μg/ml PEG20.0000, 10 mM magnesium acetate, 0.004% NP40 and 10% DMSO in a final volume of 10 μL. Fyn and inhibitors were preincubated in ice for 5 min; after addition of the substrates the reaction was conducted at 30° C. for 10 min. The reaction was stopped by adding 5 μL of 3% phosphoric acid. Aliquots (10 μL) were then transferred into a P30 Filtermat (PerkinElmer), washed five times with 75 mM phosphoric acid and once with acetone for 5 minute. The filter was dried and transferred to a sealable plastic bag, and scintillation cocktail (4 mL) was added. Spotted reactions were read in a MicroBeta Liquid (Perkinelmer) scintillation counter. The ID50 values were obtained according to the following equation:
Ki values toward recombinant Fyn were calculated using the equation:
according to a competitive mechanism of inhibition toward ATP substrate, where [SATP] is the concentration of ATP. Curve fitting was performed with the program GraphPad Prism version 5.00.

Fc1ccccc1CNc1nc(SCCN2CCOCC2)nc2c1cnn2CCc1ccccc1
Ki [1]: 0.17 µM
IC50 [2]: 63 µM

CSc1nc(Nc2cccc(Cl)c2)c2cnn(CCc3ccccc3)c2n1 [Si214, N-(3-chlorophenyl)-6-(methylthio)-1-phenethyl-1H-pyrazolo[3,4-d]pyrimidin-4-amine]
IC50 [3]: 0.08 µM
PAMPA BBB (MR %) ([4]; Membrane Retention, BBB): (55.7) %
Papp at 5 h, 0.5 mM ([4]; PAMPA, pH 7.4): 14.8 nm/s
Metabolic Stab. % [5]: 99.0%
PAMPA GI ([6]; Gastrointestinal PAMPA, Table 8): 0 10^−6 cm · sec^−1
PAMPA GI (MR %) ([6]; Membrane Retention, GI): (78.0) %

Nc1ncnc2c1c(-c1ccc(Cl)cc1)nn2CC(Cl)c1ccccc1 (stereo not shown) [Si308, 3-(4-Chlorophenyl)-1-(2-chloro-2-phenylethyl)-1H-pyrazolo[3,4-d]pyrimidin-4-amine]
IC50 for cell viability K562 [7]: submicromolar range
IC50 ([7]; Homo sapiens, K562, read-out: Cellular Data (IC50, μM) K562): 0.56 ± 0.01 µM
duration of inhibitory activity on Tau phosphorylation ([8]; after compound administration): effective up to six hours
Aβ42 induced Tyr18-Tau phosphorylation ([8]; dose dependent): significantly affected
cell toxicity in human normal fibroblasts [9]: did not showed any sign of cell toxicity
melting point: 150 to 151 °C
Ki [10]: 0.095 µM
Ki ([10]; read-out: Ki Fyn): 0.07 µM
